From patent US11065232B2, “Dihydrotetrabenazine for the treatment of anxiety and psychoses” (ADEPTIO PHARMACEUTICALS LIMITED, priority 2017, dated 2021)

What was measured:
[1] = test system: I2 (antagonist radioligand); experiment: Receptor protein binding studies, I2
From the text: (§1) The four 3,11b trans-dihydrotetrabenazine isomers (+)-α, (−)-α, (+)-β and (−)-β were subjected to specific binding assays to test their ability to bind to the receptors and transporter proteins described below. The results are set out in Table 1

[2] = target: T1, alpha 2C (h) (antagonist radioligand) (Homo sapiens, UniProt P18825); experiment: Receptor protein binding studies, alpha 2C
T1 sequence (P18825 1-462): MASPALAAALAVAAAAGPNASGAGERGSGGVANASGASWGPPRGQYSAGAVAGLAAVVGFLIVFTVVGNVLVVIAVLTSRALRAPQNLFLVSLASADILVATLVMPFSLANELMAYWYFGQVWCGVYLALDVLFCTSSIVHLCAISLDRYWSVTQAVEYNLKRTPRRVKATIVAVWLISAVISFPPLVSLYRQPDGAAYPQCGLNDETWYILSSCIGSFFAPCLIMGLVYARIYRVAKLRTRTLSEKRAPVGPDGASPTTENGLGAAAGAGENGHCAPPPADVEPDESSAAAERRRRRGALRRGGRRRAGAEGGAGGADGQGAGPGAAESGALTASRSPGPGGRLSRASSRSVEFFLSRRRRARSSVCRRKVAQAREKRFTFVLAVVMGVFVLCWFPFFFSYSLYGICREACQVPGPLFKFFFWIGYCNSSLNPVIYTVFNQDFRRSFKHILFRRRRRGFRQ
From the text: as §1

[3] = target: 5-HT2B (h) (agonist radioligand) (Homo sapiens, UniProt P41595); experiment: Receptor protein binding studies, 5-HT2B
From the text: as §1

[4] = target: T2, alpha 2A (h) (antagonist radioligand) (Homo sapiens, UniProt P08913); experiment: Receptor protein binding studies, alpha 2A
T2 sequence (P08913 1-465): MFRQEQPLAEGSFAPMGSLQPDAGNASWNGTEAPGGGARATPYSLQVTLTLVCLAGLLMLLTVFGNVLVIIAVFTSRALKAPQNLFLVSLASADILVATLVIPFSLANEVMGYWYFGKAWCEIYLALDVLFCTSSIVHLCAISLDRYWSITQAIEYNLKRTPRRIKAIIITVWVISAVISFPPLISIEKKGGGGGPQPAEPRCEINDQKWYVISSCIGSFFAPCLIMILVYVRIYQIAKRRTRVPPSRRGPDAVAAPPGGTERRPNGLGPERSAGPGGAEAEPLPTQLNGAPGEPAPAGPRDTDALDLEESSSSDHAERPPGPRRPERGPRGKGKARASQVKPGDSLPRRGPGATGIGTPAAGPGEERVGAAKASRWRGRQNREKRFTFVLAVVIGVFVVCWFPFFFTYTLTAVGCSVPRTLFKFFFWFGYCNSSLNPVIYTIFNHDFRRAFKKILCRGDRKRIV
From the text: as §1

[5] = target: T3, D4.4 (h) (antagonist radioligand) (Homo sapiens, UniProt P21917); experiment: Receptor protein binding studies, D4.4; conditions: read-out: % Inhibition of specific binding
T3 sequence (P21917 1-419): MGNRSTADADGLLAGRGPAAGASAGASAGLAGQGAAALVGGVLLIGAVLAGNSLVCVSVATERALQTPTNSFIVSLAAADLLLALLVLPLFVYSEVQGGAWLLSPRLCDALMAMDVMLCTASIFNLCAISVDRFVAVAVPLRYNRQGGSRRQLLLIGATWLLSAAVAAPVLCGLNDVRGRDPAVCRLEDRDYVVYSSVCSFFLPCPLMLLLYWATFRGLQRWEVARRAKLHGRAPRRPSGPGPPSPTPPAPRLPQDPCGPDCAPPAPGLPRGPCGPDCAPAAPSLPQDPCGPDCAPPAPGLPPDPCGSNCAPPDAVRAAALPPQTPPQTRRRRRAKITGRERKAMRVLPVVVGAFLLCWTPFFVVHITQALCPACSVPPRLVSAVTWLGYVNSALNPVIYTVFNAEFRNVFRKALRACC
From the text: as §1

[6] = target: T4, 5-HT1A(h) (agonist radioligand) (Homo sapiens, UniProt P08908); experiment: Receptor protein binding studies, 5-HT1A
T4 sequence (P08908 1-422): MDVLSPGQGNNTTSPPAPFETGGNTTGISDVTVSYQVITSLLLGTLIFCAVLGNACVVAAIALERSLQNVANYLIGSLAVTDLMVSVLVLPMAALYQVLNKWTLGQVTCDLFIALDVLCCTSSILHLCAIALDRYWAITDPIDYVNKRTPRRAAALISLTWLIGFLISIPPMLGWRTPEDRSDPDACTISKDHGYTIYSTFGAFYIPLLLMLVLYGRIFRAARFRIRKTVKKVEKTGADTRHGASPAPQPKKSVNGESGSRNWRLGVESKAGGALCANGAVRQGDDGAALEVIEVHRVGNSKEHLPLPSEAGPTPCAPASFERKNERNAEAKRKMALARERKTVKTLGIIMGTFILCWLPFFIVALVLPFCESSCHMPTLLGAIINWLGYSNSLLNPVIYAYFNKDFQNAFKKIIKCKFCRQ
From the text: as §1

[7] = target: hERG (membrane preparation) (antagonist radioligand) (Homo sapiens, UniProt Q12809); experiment: Receptor protein binding studies, hERG
From the text: as §1

Sequence of hERG (membrane preparation) (antagonist radioligand) (Q12809 whole entry): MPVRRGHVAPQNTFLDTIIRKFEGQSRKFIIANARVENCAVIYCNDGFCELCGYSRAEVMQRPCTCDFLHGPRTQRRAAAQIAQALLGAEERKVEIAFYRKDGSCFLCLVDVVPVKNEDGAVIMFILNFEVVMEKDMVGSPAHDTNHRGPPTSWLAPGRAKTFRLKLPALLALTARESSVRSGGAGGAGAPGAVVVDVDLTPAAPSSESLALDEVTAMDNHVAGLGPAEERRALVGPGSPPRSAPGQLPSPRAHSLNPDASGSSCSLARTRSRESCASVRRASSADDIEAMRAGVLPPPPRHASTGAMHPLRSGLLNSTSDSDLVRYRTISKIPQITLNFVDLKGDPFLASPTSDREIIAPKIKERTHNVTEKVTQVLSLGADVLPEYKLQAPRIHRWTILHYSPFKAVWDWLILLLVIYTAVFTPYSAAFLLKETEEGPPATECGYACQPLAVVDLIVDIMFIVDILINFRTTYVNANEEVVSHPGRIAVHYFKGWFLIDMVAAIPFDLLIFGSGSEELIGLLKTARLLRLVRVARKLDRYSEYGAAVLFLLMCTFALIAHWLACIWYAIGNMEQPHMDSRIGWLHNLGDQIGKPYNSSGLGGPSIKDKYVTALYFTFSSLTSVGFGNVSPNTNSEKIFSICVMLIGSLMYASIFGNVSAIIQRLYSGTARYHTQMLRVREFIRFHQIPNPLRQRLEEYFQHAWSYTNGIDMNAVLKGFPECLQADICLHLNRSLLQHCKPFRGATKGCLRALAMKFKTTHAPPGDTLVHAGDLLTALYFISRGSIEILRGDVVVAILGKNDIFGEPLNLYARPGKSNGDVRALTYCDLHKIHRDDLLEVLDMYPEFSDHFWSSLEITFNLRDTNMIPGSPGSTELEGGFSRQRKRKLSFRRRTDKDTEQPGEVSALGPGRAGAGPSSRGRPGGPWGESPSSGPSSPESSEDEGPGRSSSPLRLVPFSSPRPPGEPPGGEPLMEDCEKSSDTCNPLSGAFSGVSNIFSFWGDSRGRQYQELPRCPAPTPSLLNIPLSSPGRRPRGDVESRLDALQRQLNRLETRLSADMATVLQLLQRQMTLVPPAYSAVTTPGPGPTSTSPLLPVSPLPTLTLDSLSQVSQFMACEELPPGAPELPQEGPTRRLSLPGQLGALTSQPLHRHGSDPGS
Sequence of 5-HT2B (h) (agonist radioligand) (P41595 whole entry): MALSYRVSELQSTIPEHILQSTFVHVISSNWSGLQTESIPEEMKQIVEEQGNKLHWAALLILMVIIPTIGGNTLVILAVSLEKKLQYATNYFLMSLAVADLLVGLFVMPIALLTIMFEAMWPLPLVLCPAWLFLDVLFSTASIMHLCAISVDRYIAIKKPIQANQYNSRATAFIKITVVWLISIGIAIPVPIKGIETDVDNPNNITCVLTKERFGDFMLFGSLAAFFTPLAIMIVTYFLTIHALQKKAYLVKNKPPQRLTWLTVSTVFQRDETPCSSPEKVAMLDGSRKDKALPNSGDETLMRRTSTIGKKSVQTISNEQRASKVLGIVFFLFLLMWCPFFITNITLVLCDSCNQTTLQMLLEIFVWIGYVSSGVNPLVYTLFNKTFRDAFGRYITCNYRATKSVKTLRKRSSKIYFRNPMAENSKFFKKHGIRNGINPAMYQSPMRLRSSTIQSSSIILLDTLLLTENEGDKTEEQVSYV

COc1cc2c(cc1OC)[C@@H]1C[C@@H](O)[C@@H](CC(C)C)CN1CC2 [(−)-Beta, (2S,3R,11bR)-3-isobutyl-9,10-dimethoxy-1,3,4,6,7,11b-hexahydro-2H-pyrido[2,1,a]isoquinolin-2-ol]
% Inhibition of specific binding ([1]; CONC 1.0E−05 (unit not given)): 37% | % Inhibition of specific binding ([1]; CONC 1.0E−06 (unit not given)): 11% | activity at the alpha 2C receptor (in words) [2]: potent antagonists | activity at the 5-HT 2B receptor (in words) [3]: potent agonists | activity at the alpha 2A receptor (in words) [4]: potent antagonists | inhibition at 10 µM ([5]; CONC 1.0E−05 (unit inferred), 10 μM): 99% | inhibition at 1 µM ([5]; CONC 1.0E−06 (unit inferred), 1 μM): 87% | activity at the 5-HT 1A receptor (in words) [6]: potent agonists | % Inhibition of specific binding ([7]; CONC 1.0E−05 (unit not given)): 64% | % Inhibition of specific binding ([7]; CONC 1.0E−06 (unit not given)): −1%
